Key:
Test in all cases: relative viability (nuclei count vs DMSO), 5 days (fraction); higher = more cells survive
Masitinib + Pemetrexed = compound: Cc1ccc(NC(=O)c2ccc(CN3CCN(C)CC3)cc2)cc1Nc1nc(-c2cccnc2)cs1 [Masitinib] + Nc1nc2[nH]cc(CCc3ccc(C(=O)N[C@@H](CCC(=O)O)C(=O)O)cc3)c2c(=O)[nH]1 [Pemetrexed] (partner 0.2 µM)
In short: (§1)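 Values are medians from duplicate plates. Each reflects relative viability, defined as the nuclei count of treated wells over that of vehicle wells. Lung cancer cell lines in 1536-well plates were pin-tool dosed one day after seeding with one drug alone or with a fixed anchor-drug dose plus five library-drug doses (not always all listed) in √10 steps, then fixed, stained and imaged at 4× after 5 days.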

Masitinib + OSI-027 = compound: Cc1ccc(NC(=O)c2ccc(CN3CCN(C)CC3)cc2)cc1Nc1nc(-c2cccnc2)cs1 [Masitinib] + COc1cccc2cc(-c3nc([C@H]4CC[C@H](C(=O)O)CC4)n4ncnc(N)c34)[nH]c12 [OSI-027] (partner 0.5 µM)
In short: as §1

Masitinib + Lapatinib = compound: Cc1ccc(NC(=O)c2ccc(CN3CCN(C)CC3)cc2)cc1Nc1nc(-c2cccnc2)cs1 [Masitinib] + CS(=O)(=O)CCNCc1ccc(-c2ccc3ncnc(Nc4ccc(OCc5cccc(F)c5)c(Cl)c4)c3c2)o1 [Lapatinib] (partner 2 µM)
In short: as §1

[1] = compound: CC1=CC(=CC=C1)NC2=NC(=CS2)C3=CC=NC=C3 + COc1cc2c(Oc3ccc(NC(=O)C4(C(=O)Nc5ccc(F)cc5)CC4)cc3F)ccnc2cc1OCCCN1CCOCC1 [Foretinib] (partner 0.25 µM)
In short: as §1

| Cell Line | relative viability (Masitinib + Pemetrexed; first compound 0.01 µM) | relative viability (Masitinib + Pemetrexed; first compound 0.03162 µM) | relative viability (Masitinib + Pemetrexed; first compound 0.1 µM) | relative viability (Masitinib + Pemetrexed; first compound 0.3162 µM) | relative viability (Masitinib + Pemetrexed; first compound 1 µM) | relative viability (Masitinib + OSI-027; first compound 0.01 µM) | relative viability (Masitinib + OSI-027; first compound 0.03162 µM) | relative viability (Masitinib + OSI-027; first compound 0.1 µM) | relative viability (Masitinib + OSI-027; first compound 0.3162 µM) | relative viability (Masitinib + OSI-027; first compound 1 µM) | relative viability (Masitinib + Lapatinib; first compound 0.01 µM) | relative viability (Masitinib + Lapatinib; first compound 0.03162 µM) | relative viability (Masitinib + Lapatinib; first compound 0.1 µM) | relative viability (Masitinib + Lapatinib; first compound 0.3162 µM) | relative viability (Masitinib + Lapatinib; first compound 1 µM) | relative viability ([1]; first compound 0.08 µM) | relative viability ([1]; first compound 0.253 µM) | relative viability ([1]; first compound 0.8 µM) | relative viability ([1]; first compound 2.53 µM) | relative viability ([1]; first compound 8 µM) |
| --- | --- | --- | --- | --- | --- | --- | --- | --- | --- | --- | --- | --- | --- | --- | --- | --- | --- | --- | --- | --- |
| NCI-H2087 | 0.642 | 0.666 | 0.66 | 0.555 | 0.703 | 0.627 | 0.628 | 0.743 | 0.481 | 0.437 | 0.757 | 1.06 | 0.77 | 1.22 | 0.861 | 0.996 | 1.12 | 0.994 | 1.05 | 0.688 |
| NCI-H2126 | 0.633 | 0.713 | 0.672 | 0.665 | 0.738 | 0.697 | 0.727 | 0.653 | 0.602 | 0.657 | 0.773 | 0.724 | 0.734 | 0.662 | 0.769 | 0.858 | 1.11 | 1.08 | 0.982 | 0.862 |
| NCI-H2170 | 0.238 | 0.264 | 0.263 | 0.284 | 0.263 | 0.701 | 0.75 | 0.791 | 0.606 | 0.726 | 0.269 | 0.275 | 0.267 | 0.264 | 0.262 | 0.975 | 1.05 | 0.986 | 0.976 | 0.893 |
| NCI-H2228 | 0.342 | 0.372 | 0.347 | 0.347 | 0.363 | 0.633 | 0.661 | 0.638 | 0.807 | 0.528 | 0.972 | 1.32 | 1.14 | 1.38 | 1.06 | 0.705 | 0.955 | 0.766 | 0.893 | 0.892 |
| NCI-H2347 | 0.425 | 0.406 | 0.385 | 0.446 | 0.417 | 0.403 | 0.531 | 0.447 | 0.354 | 0.467 | 0.826 | 0.911 | 0.821 | 0.833 | 0.948 | 0.926 | 0.721 | 0.855 | 0.994 | 0.842 |
| NCI-H2405 | 0.962 | 1.05 | 0.98 | 1.04 | 0.704 | 0.62 | 0.63 | 0.633 | 0.609 | 0.659 | 0.921 | 1.09 | 0.953 | 0.946 | 0.952 | 0.914 | 0.942 | 0.786 | 0.99 | 1 |
| NCI-H3122 | 0.175 | 0.196 | 0.193 | 0.201 | 0.191 | – | 1.38 | – | 0.969 | 1.09 | 1.01 | 1.04 | 1.02 | 1.04 | 1 | 0.885 | 0.967 | 0.984 | 0.971 | 1.01 |
| PC-3 [JPC-3] | 1.04 | 0.733 | 1.06 | 1.37 | 0.87 | 0.381 | 0.643 | 0.783 | 0.64 | 0.694 | 0.474 | 0.416 | 0.462 | 0.367 | 0.422 | 0.975 | 0.928 | 0.911 | 0.918 | 0.824 |
| PC-14 | 0.137 | 0.144 | 0.13 | 0.12 | 0.141 | 0.887 | 0.794 | 0.822 | 0.875 | 0.826 | 0.286 | 0.314 | 0.315 | 0.185 | 0.309 | 0.875 | 0.891 | 0.889 | 0.959 | 0.928 |
| RERF-LC-KJ | 0.475 | 0.522 | 0.44 | 0.535 | 0.459 | 0.629 | 0.517 | 0.583 | 0.418 | 0.412 | 0.94 | 0.705 | 0.83 | 0.73 | 0.719 | 0.847 | 0.874 | 0.718 | 0.78 | 0.762 |
| SK-LU-1 | 0.982 | 1 | 1.06 | 0.919 | 1.03 | 0.361 | 0.334 | 0.346 | 0.329 | 0.368 | 0.928 | 0.853 | 1.04 | 0.986 | 0.779 | 0.767 | 0.886 | – | 0.781 | 0.76 |
| SK-MES-1 | 0.844 | 0.924 | 0.873 | 0.877 | 0.967 | 0.615 | 0.668 | 0.684 | 0.52 | 0.651 | 0.473 | 0.426 | 0.518 | 0.386 | 0.45 | 0.687 | 0.78 | 0.751 | 1.04 | 0.8 |
| SW 1573 | 0.808 | 0.942 | 0.854 | 0.873 | 0.92 | 0.646 | 0.627 | 0.798 | 0.66 | 0.559 | 0.986 | 1.17 | 1.2 | 0.73 | 0.987 | 0.818 | 0.872 | 0.97 | 0.986 | 0.869 |

Reference: the supplement of paper PMC10307832
